Measurements taken from patent US20250064707A1, “PEPTIDE HAVING ANTI-AGING ACTIVITY, AND USE THEREOF” (CAREGEN CO., LTD., priority 2021, published 2025).

Experiments:
NIH3T3 cells = experiment: Collagen ELISA and hyaluronic acid ELISA of culture medium, fibroblasts; assay type: cell-based, mouse; conditions: peptide 50 μM, 100 μM, 72 hours
Experimental: (§1) First, NIH3T3 cells and HaCaT cells (human keratinocyte cell line) were seeded in a 24-well plate at a cell density of 1×10^4 cell/well, and then the cells were cultured in DMEM medium containing 10% fetal bovine serum (FBS) for 24 hours. The cultured cells were washed once with serum free DMEM medium, and the peptide of the present invention was mixed in 2 mL of the serum free DMEM medium at each of concentrations of 50 μM, 100 μM, and 5 ng/ml, and dispensed into three wells by 500 μL per condition. The NIH3T3 cells were treated with 5 ng/ml of TGF-β1 instead of the above peptide as a positive control (PC). The HaCaT cells were treated with 100 nM of IGF-1 instead of the above peptide as a PC. The cells were cultured in a CO2 incubator at 37° C. for 72 hours.
(§2) The medium of the cultured NIH3T3 and HaCaT cells was centrifuged to settle a suspended matter, a supernatant was transferred to an e-tube, and then each of ELISA (abcam, Cat No.: ab210579, UK) and hyaluronic acid (HA) ELISA (ECHELON biosciences, Cat No.: K-1200, USA) was performed using the same.

HaCaT cells [1] = experiment: RT-PCR expression of SIRT1 and AQP3 decreased by UVB irradiation; assay type: cell-based, human; conditions: peptide 10, 50, 100 μM, 15 J/cm^2 UVB, 24 hours
Experimental: The expression of genes related to the skin barrier strengthening function is inhibited when irradiated with UV.
(§3) First, HaCaT cells were seeded in a 6-well plate at a cell density of 3×10^5 cell/well, and then the cells were cultured in DMEM medium containing 10% fetal bovine serum (FBS) for 24 hours. The cultured cells were washed once with serum free DMEM medium, and then the peptide of the present invention was mixed in 1 mL of the serum free DMEM medium at each of concentrations of 10, 50, and 100 μM, and dispensed into the cells. A positive control (PC) was treated with 2.5 mM of N-acetylcysteine (NaC) instead of the above peptide. The cells were cultured in a CO2 incubator at 37° C. for 1 hour.
The cultured cells were washed twice with PBS, 1 ml of PBS was added, and irradiation was performed with 15 J/cm^2 of UVB using a UV irradiator (VILBER LOURMAT, Cat No.: 3102-BSU, France). After removing PBS, 900 μL of the medium transferred to the tube was dispensed, and culture was performed in a CO2 incubator at 37° C. for 24 hours. The cultured cells were washed twice with PBS, and then RNA was extracted from the cells using easy blue (iNtRON, Cat. No.: 17061, Korea). The extracted RNA was subjected to an RT reaction using an RNA kit (enzynomics, Cat. No.: P581T, Korea). Thereafter, RT-PCR was performed using a PCR kit (enzynomics, Cat. No.: R581T, Korea). […]

HaCaT cells [2] = experiment: Intracellular reactive oxygen species after UVB irradiation (DCFH-DA, FACS); assay type: cell-based, human; conditions: peptide 10, 50, 100 μM, 1 hour before 15 J/cm^2 UVB, 24 hours after
Experimental: The reactive oxygen species level increases when UV is irradiated. Therefore, it was confirmed whether the reactive oxygen species level decreased again and the aging phenomenon caused by oxidative stress in cells was inhibited when treated with the peptide of the present invention.
as §3, with “5×10^5” for “3×10^5”, “25 μM” for “2.5 mM”, “Trolox” for “N-acetylcysteine (NaC)”, “peptide.” for “peptide. The cells were cultured in a CO2 incubator at 37° C. for 1 hour.”
The cells were cultured in a CO2 incubator at 37° C. for 1 hour. The medium of the cultured cells was transferred to a tube, 1 ml of PBS was added, and irradiation was performed with 15 J/cm^2 of UVB using a UV irradiator (VILBER LOURMAT, Cat No.: 3102-BSU, France). After removing PBS, 900 μL of the medium transferred to the tube was dispensed, and culture was performed in a CO2 incubator at 37° C. for 24 hours. […] After centrifugation, the cells were washed with PBS, and a fluorescence value was measured through FACS.

HaCaT cells [3] = experiment: Western blot of apoptotic-inducing factors (cleaved PARP-1, cleaved Caspase-3) increased by UVB irradiation; assay type: cell-based, human; conditions: peptide 10, 50, 100 μM, 15 J/cm^2 UVB, 24 hours
Experimental: Expression of the apoptotic-inducing factors increases when irradiated with UV. Therefore, it was confirmed whether the photoaging phenomenon of the cells was inhibited and the damaged cells were regenerated by confirming whether the increased expression levels of the apoptotic-inducing factors such as cleaved PARP-1 and cleaved Caspase-3 decreased again when treated with the peptide of the present invention.
as §3, with “5×10^5” for “3×10^5”, “peptide.” for “peptide. The cells were cultured in a CO2 incubator at 37° C. for 1 hour.”
The cells were cultured in a CO2 incubator at 37° C. for 1 hour, the medium of the cultured cells was transferred to a tube, 1 mL of PBS was added, and then irradiation was performed with 15 J/cm^2 of UVB using a UV irradiator (VILBER LOURMAT, Cat No.: 3102-BSU, France). After removing PBS, 900 μL of the medium transferred to the tube was added again, and culture was performed in a CO2 incubator at 37° C. for 24 hours. […]

[4] = tested on: NIH3T3 cells (mouse fibroblast cell line); experiment: RT-PCR expression of ECM component genes (Col1a1, fibronectin, elastin) in fibroblasts; assay type: cell-based; conditions: peptide 10, 50, 100 μM, 24 hours, RT-PCR vs GAPDH
Experimental: First, NIH3T3 cells (mouse fibroblast cell line) were seeded in a 6-well plate at a cell density of 5×10^5 cell/well, and then the cells were cultured in DMEM medium containing 10% fetal bovine serum (FBS) for 24 hours. The cultured cells were washed once with serum free DMEM medium, and the peptide of the present invention was mixed in 1 mL of the serum free DMEM medium at each of concentrations of 10, 50, and 100 μM, and dispensed into the cells. A positive control (PC) was treated with 100 nM of bFGF instead of the above peptide. The cells were cultured in a CO2 incubator at 37° C. for 24 hours.
The cultured cells were washed twice with PBS, and RNA was extracted from the cells using easy blue (iNtRON, Cat. No.: 17061, Korea). The extracted RNA was subjected to RT-PCR using an RNA kit (enzynomics, Cat. No.: P581T, Korea). The sequences of the primers of collagen (Col1a1), fibronectin, and elastin used in RT-PCR and the sequence of the primer of GAPDH used to compare the total RNA amount of each treatment group are shown in [Table 2].

HaCaT cells [5] = experiment: RT-PCR expression of skin barrier genes (SIRT1, AQP3) in keratinocytes; assay type: cell-based, human; conditions: peptide 10, 50, 100 μM, 24 hours
Experimental: as §3, with “100 nM” for “2.5 mM”, “EGF” for “N-acetylcysteine (NaC)”, “24 hours.” for “1 hour.”
The cultured cells were washed twice with PBS, and then RNA was extracted from the cells using easy blue (iNtRON, Cat. No.: 17061, Korea). The extracted RNA was subjected to RT reaction using a kit (enzynomics, Cat. No.: RT200, Korea). Thereafter, RT-PCR was performed using a PCR kit (enzynomics, Cat. No.: R581T, Korea). The sequences of the primers of SIRT1 and AQP3 used in RT-PCR are shown in [Table 3]. The sequence of the primer of GAPDH used to compare the total RNA amount of each treatment group is shown in [Table 2].

[6] = tested on: HaCaT cells (human keratinocyte cell line); experiment: Collagen ELISA and hyaluronic acid ELISA of culture medium, keratinocytes; assay type: cell-based; conditions: peptide 50 μM, 100 μM, 72 hours
Experimental: as §1, §2

## EYIPNRVCRR [SEQ ID NO: 1]
NIH3T3 cells; ELISA of medium (FIG. 2A)
  amount of collagen protein: gradually increased as a concentration of the peptide increased
NIH3T3 cells; HA ELISA of medium (FIG. 2A)
  amount of hyaluronic acid: gradually increased as a concentration of the peptide increased
HaCaT cells [1]
  mRNA level of AQP3 decreased by UV irradiation: increased again
  mRNA level of SIRT1 decreased by UV irradiation: increased again
HaCaT cells [2]
  intracellular reactive oxygen species level increased by UV irradiation: decreased
HaCaT cells [3]
  expression of Cleaved Caspase-3 increased by UV irradiation: inhibited the expression
  expression of Cleaved PARP-1 increased by UV irradiation: inhibited the expression
[4]
  expression of the Col1a1 gene: gradually increased as a concentration of the peptide increased
  expression of the elastin gene: gradually increased as a concentration of the peptide increased
  expression of the fibronectin gene: gradually increased as a concentration of the peptide increased
HaCaT cells [5]
  mRNA level of AQP3: increased
  mRNA level of SIRT1: increased
[6]; ELISA of medium (FIG. 2B)
  amount of collagen protein: gradually increased as a concentration of the peptide increased
[6]; HA ELISA of medium (FIG. 2B)
  amount of hyaluronic acid: gradually increased as a concentration of the peptide increased
